ChEMBL document CHEMBL1127256, “Synthesis of C2-symmetric inhibitors of the HIV-1 protease, with N,N-substituted ethylenediamide and ethylenediamine linkers” (Bioorg Med Chem Lett, 1994)
Calls of active or inactive are those of the source. The rule behind the calls is not given here.

What was measured:
[1] = target: Human immunodeficiency virus type 1 protease (Human immunodeficiency virus 1, UniProt Q72874); test: Inhibitory concentration against HIV-1 protease
[2] = target: Human immunodeficiency virus type 1 protease (Human immunodeficiency virus 1) (UniProt Q72874); test: Percent inhibition of HIV-1 protease against substrate HKARVL-(NO2)F-EAnLSNH2 (test III) at a concentration of 10 e-5M
[3] = target: Human immunodeficiency virus type 1 protease (Human immunodeficiency virus 1) (UniProt Q72874); test: Percent inhibition of HIV-1 protease against substrate SQN-(pNO2)F-PIV (test II) at a concentration of 10 e-5M; Inactive
[4] = target: Human immunodeficiency virus type 1 protease (Human immunodeficiency virus 1) (UniProt Q72874); test: Percent inhibition of HIV-1 protease against substrate TLNFPIS-AMC (test I) at a concentration of 10 e-5M; Inactive
[5] = target: Human immunodeficiency virus type 1 protease (Human immunodeficiency virus 1) (UniProt Q72874); test: Percent inhibition of HIV-1 protease against substrate HKARVL-(NO2)F-EAnLSNH2 (test III) at a concentration of 10 e-5M; Inactive
[6] = target: Human immunodeficiency virus type 1 protease (Human immunodeficiency virus 1) (UniProt Q72874); test: Percent inhibition of HIV-1 protease against substrate TLNFPIS-AMC (test I) at a concentration of 10 e-5M
[7] = target: Human immunodeficiency virus type 1 protease (Human immunodeficiency virus 1) (UniProt Q72874); test: Percent inhibition of HIV-1 protease against substrate SQN-(pNO2)F-PIV (test II) at a concentration of 10 e-5M

inhibition [2]	inhibition [3]	inhibition [4]	inhibition [5]	inhibition [6]	inhibition [7]	Compound	IC50 [1]
						CC(C)[C@H](NC(=O)OCc1ccccc1)C(=O)N[C@@H](Cc1ccccc1)[C@@H](O)[C@H](O)[C@H](Cc1ccccc1)NC(=O)[C@H](NC(=O)OCc1ccccc1)C(C)C	< 1 nM
25%	inactive	inactive				CC(C)[C@H](NC(=O)OCc1ccccc1)C(=O)N[C@@H](Cc1ccccc1)C(=O)NCCNC(=O)[C@H](Cc1ccccc1)NC(=O)[C@H](NC(=O)OCc1ccccc1)C(C)C	
16%	inactive	inactive				CC(C)[C@H](NC(=O)OCc1ccccc1)C(=O)N[C@@H](Cc1ccccc1)C(=O)N(C)CCN(C)C(=O)[C@H](Cc1ccccc1)NC(=O)[C@H](NC(=O)OCc1ccccc1)C(C)C	
			inactive	3%	3%	CC(C)[C@H](NC(=O)OCc1ccccc1)C(=O)N[C@H](CNCCNC[C@H](Cc1ccccc1)NC(=O)[C@H](NC(=O)OCc1ccccc1)C(C)C)Cc1ccccc1	
			inactive	3%	3%	CC(C)[C@H](NC(=O)OCc1ccccc1)C(=O)N[C@@H](Cc1ccccc1)CN(C)CCN(C)C[C@H](Cc1ccccc1)NC(=O)[C@H](NC(=O)OCc1ccccc1)C(C)C	
9%				8%	30%	CC(C)[C@H](NC(=O)OCc1ccccc1)C(=O)N[C@@H](Cc1ccccc1)CN(CCO)CCN(CCO)C[C@H](Cc1ccccc1)NC(=O)[C@H](NC(=O)OCc1ccccc1)C(C)C	
			inactive	3%	3%	CC(C)[C@H](NC(=O)OCc1ccccc1)C(=O)N[C@@H](Cc1ccccc1)CN(CCN(C[C@H](Cc1ccccc1)NC(=O)[C@H](NC(=O)OCc1ccccc1)C(C)C)C(=O)OC(C)(C)C)C(=O)OC(C)(C)C	
33%				36%	53%	CC(C)[C@H](NC(=O)OCc1ccccc1)C(=O)N[C@@H](Cc1ccccc1)CN(CCN(CC(=O)O)C[C@H](Cc1ccccc1)NC(=O)[C@H](NC(=O)OCc1ccccc1)C(C)C)CC(=O)O	
